The results in this text go back to PubChem BioAssay (NCI).

The structures appear in SMILES notation. Values joined by “and” are separate entries in the source; they are usually repeats but may differ in a detail not shown here. Equal entries are not always repeated.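 Step 1: Grow cells in 96-well plates. Step 2: Expose to compound for 48 hours at 5 concentrations. Step 3: Interpolate endpoints linearly; if unreached, use highest concentration. At the GI50, growth is halved. TGI is the concentration that stops growth completely.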 Some results are limits rather than exact numbers.

Common to all, as to experiment: NCI-60 cell line screen, 48 h
Assay [1] relates to T-47D breast.
Assay [2] concerns HT29 colon.
In assay [3] the test system is MDA-MB-231 breast.
Assay [4] deals with HCT-15 colon.
The test system of assay [5] is LOX IMVI melanoma.
Assay [6] deals with MCF7 breast.
For assay [7], the system named is SF-539 CNS.
Assay [8] has as its system OVCAR-4 ovarian.
The subject of assay [9] is KM12 colon.
Assay [10] relates to OVCAR-5 ovarian.

As for `O=C(N/N=C/c1ccncc1)c1ccc(C(F)(F)F)nc1Nc1cccc(C(F)(F)F)c1`, the GI50 is 1.78 µM in [1]; 3.43 µM in [2]; 1.81 µM in [3]; 0.804 µM in assay [4]; 0.913 µM in assay [5]; 2.27 µM in assay [6]. Further, the GI50 in assay [7] is 2.6 µM; in [8], 0.808 µM; in assay [9], 3.23 µM; in assay [10] it was 2.83 µM. Moreover, the TGI stood at 10.5 µM in [1]; 11 µM in assay [2]; 9.43 µM in assay [3]; 11.7 µM in assay [4]; 12.3 µM in [5]; 8.52 µM in [6]. In addition, the TGI in assay [7] was 9.5 µM; in assay [8], 7.99 µM; in assay [9], 12.4 µM; in [10], 14.8 µM.
For the molecule `COc1ccc(-c2nnc(Nc3nc(O)c(C4=c5cc(OC(F)(F)F)ccc5=NC4=O)s3)o2)cc1`, the GI50 in [1] is 69.8 µM; in assay [2], 71.4 µM; in [3], 13.9 µM; in assay [4], 20.4 µM; in assay [5], 16.3 µM; in [6], 39.7 µM. Moreover, the GI50 in [7] is 16.2 µM; in [8], 46.3 µM; in assay [9], 3.75 µM; in [10] it was 18.2 µM. The TGI is over 100 µM in [1]; over 100 µM in assay [2]; 30.3 µM in assay [3]; 80.4 µM in assay [4]; 56.1 µM in [5]; over 100 µM in assay [6]. In addition, the TGI in [7] was 30.7 µM; in [8], over 100 µM; in assay [9], 19.6 µM; in assay [10], 43.6 µM.
Turning to `CCOC(=O)C1=C(C)NC(C)=C(C(=O)OCC)C1c1cc(Br)c(O)c(OC)c1`, the GI50 is 8.53 µM in assay [1]; 4.72 µM in [2]; 6.15 µM in [3]; 3.65 µM in [4]; 5.23 µM in assay [5]; 4.41 µM in assay [6]. In addition, the GI50 in assay [7] is 2.64 µM; in [8] it was 5.97 µM; in [9], 3.74 µM; in [10], 4.32 µM. Moreover, the TGI in [1] amounted to 46.6 µM; in assay [2], 18.2 µM; in assay [3], 20.4 µM; in [4], 14.2 µM; in assay [5], 18.6 µM; in [6], 23.9 µM. Further, the TGI was found to be 7.07 µM in [7], 37 µM in assay [8], 14 µM in assay [9] and 15.9 µM in [10].
On to `O=C1c2ccccc2C(=O)c2c(NCCNCCO)ccc(NCCNCCO)c21`, for which the GI50 is 1.14 µM and 1.67 µM and 1.25 µM in [1]; 1.32 µM and 2.3 µM and 1.64 µM in assay [2]; 1.56 µM and 1.63 µM and 1.52 µM in assay [3]; 10.1 µM and 14.8 µM and 11.2 µM in assay [4]; 0.426 µM and 0.941 µM and 0.545 µM in assay [5]; 0.0479 µM and 0.0696 µM and 0.069 µM in assay [6]. Also, the GI50 in assay [7] is 0.864 µM and 1.04 µM and 0.947 µM; in [8], 0.896 µM and 1.13 µM and 0.986 µM; in [9], 2.4 µM and 2.47 µM and 3.52 µM; in assay [10], 2.5 µM and 2.29 µM and 2.35 µM. In addition, the TGI in assay [1] is 7.09 µM and 7.05 µM and 5.97 µM; in [2], 7.42 µM and 12.1 µM and 5.1 µM; in assay [3], 5.85 µM and 6.54 µM and 4.47 µM; in [4], over 100 µM; in assay [5] it was 4.19 µM and 6.13 µM and 6.12 µM; in assay [6], 0.948 µM and 2.39 µM and 4.99 µM. In addition, the TGI was 3.42 µM and 6.7 µM and 4.07 µM in assay [7]; 4.87 µM and 4.02 µM and 4.54 µM in assay [8]; 9.12 µM and 21.1 µM and 20.3 µM in [9]; 9.5 µM and 10.9 µM and 11.5 µM in [10].
In the case of `O=C(NCCSSCCNC(=O)/C(Cc1ccc(O)c(Br)c1)=N/O)/C(Cc1ccc(O)c(Br)c1)=N/O`, the TGI in assay [1] was 13.1 µM; in assay [2], over 21.4 µM; in assay [3] it was 8.26 µM; in assay [4], 14.4 µM; in [5], 3.31 µM; in assay [6] it was 8.21 µM. The TGI in assay [7] came to 8.84 µM; in [8], 18.3 µM; in assay [9], 10.5 µM; in assay [10], 13.5 µM.
Regarding `O=C1c2ccccc2-c2c1c1c(O)cccc1n2CCCc1ccccc1`, the GI50 in assay [1] was 13 µM; in assay [2], 42.8 µM; in [3] it was 70 µM; in assay [4], 4.11 µM; in assay [5] it was 43.9 µM; in assay [6] it was 48.4 µM. Besides, the GI50 in assay [7] was 23.1 µM; in assay [8], 87.7 µM; in assay [9], 4.54 µM; in assay [10], 64 µM. Further, the TGI in assay [1], in assay [2], in assay [3], in [4], in assay [5] and in assay [6] was over 100 µM each time. Further, the TGI in assay [7], in assay [8], in assay [9] and in [10] was over 100 µM in each case.
In the case of `CC[C@@]1(OC(=O)C(N)CCC(=O)O)C(=O)OCc2c1cc1n(c2=O)Cc2cc3ccccc3nc2-1` (stereo not given in full), the TGI in assay [1] was over 100 µM; in assay [2], over 100 µM; in assay [3], 5.82 µM; in [4], over 100 µM; in assay [5] it was 0.482 µM; in assay [6] it was over 100 µM. Also, the TGI in assay [7] was 0.0754 µM; in [8] it was over 20.8 µM; in assay [9], 6.1 µM; in [10], 8.09 µM.
On to `Oc1[nH]c2ccc(Cl)cc2c1/C=c1/ccc2c(c1)N=C(c1ccc(C(F)(F)F)cc1)N=2`, for which the GI50 in [1] was 2.86 µM; in [2], 1.78 µM; in assay [3] it was 1.75 µM; in assay [4] it was 2.64 µM; in [5], 1.77 µM; in [6], 2.25 µM. Moreover, the GI50 was 2.51 µM in assay [7], 2.73 µM in [8], 2.08 µM in assay [9] and 3.1 µM in assay [10]. Moreover, the TGI in assay [1] is 9.23 µM; in assay [2] it was 3.94 µM; in assay [3] it was 3.63 µM; in [4], 8.91 µM; in assay [5], 3.42 µM; in assay [6] it was 7.64 µM. Further, the TGI is 6.65 µM in assay [7], 11.4 µM in [8], 7.63 µM in assay [9] and 12.3 µM in assay [10].
For the molecule `O=S1CCN(Cc2ccc(-c3ccc4ncnc(Nc5ccc(OCc6ccccc6)c(F)c5)c4c3)o2)CC1`, the GI50 in assay [1] was 3.22 µM; in assay [2] it was 5.21 µM; in assay [3] it was 7.07 µM; in assay [4], 8.13 µM; in assay [5], 6.39 µM; in assay [6], 6.89 µM. Also, the GI50 in assay [7] is 5.84 µM; in [8], 5.75 µM; in [9] it was 10.1 µM; in [10] it was 13.9 µM. Besides, the TGI is over 19.2 µM in [1]; over 25 µM in [2]; over 23.7 µM in assay [3]; over 25 µM in assay [4]; over 23.4 µM in assay [5]; over 16.5 µM in [6]. Further, the TGI is 15.1 µM in assay [7], over 25 µM in assay [8], over 25 µM in [9] and over 25 µM in assay [10].
Turning to `[CH3][Sn]([CH3])([CH3])[O]C(=O)C(O)c1ccccc1` (stereo not given), the GI50 in assay [1] is 12.7 µM; in assay [2], 3.45 µM; in assay [3], 39.2 µM; in [4], 3.57 µM; in assay [5], 2.85 µM; in [6] it was over 100 µM. For the same molecule, the GI50 in [7] is 5.9 µM; in assay [8] it was 7.51 µM; in [9], 8.78 µM; in assay [10] it was 9.91 µM. Also, the TGI in [1] is over 100 µM; in [2], 31.6 µM; in [3], over 100 µM; in assay [4] it was 19.1 µM; in [5], 8.53 µM; in [6], over 100 µM. In addition, the TGI is 29.2 µM in assay [7], over 100 µM in [8], over 100 µM in [9] and 76.4 µM in [10].
Regarding `CC(=O)NC1CCCN(O)C(=O)/C=C(/C)CCOC(=O)C(NC(C)=O)CCCN(O)C(=O)/C=C(/C)CCOC(=O)C(NC(C)=O)CCCN(O)C(=O)/C=C(/C)CCOC1=O.[Fe]` (stereo not given), the GI50 in assay [1], in [2], in [3], in assay [4], in assay [5] and in assay [6] was over 100 µM in each case. Further, the GI50 in [7], in assay [8], in [9] and in assay [10] was over 100 µM each time. For the same molecule, the TGI in [1], in assay [2], in assay [3], in assay [4], in [5] and in [6] was over 100 µM each time. The TGI in [7], in [8], in assay [9] and in assay [10] was over 100 µM each time.
Regarding `O=C(O)CC1C(=O)OC2C3COC(=O)c4cc(O)c(O)c(O)c4-c4c(cc(O)c(O)c4O)C(=O)OC2C(OC(=O)c2cc(O)c(O)c4c2C1C(O)C(=O)O4)C(OC(=O)c1cc(O)c(O)c(O)c1)O3` (stereo not given), the TGI is over 100 µM in assay [1]; 26.4 µM in assay [2]; 78.6 µM in assay [3]; over 100 µM in assay [4]; 31.5 µM in [5]; 40.6 µM in assay [6]. Also, the TGI was over 100 µM in assay [7], over 100 µM in assay [8], 42.6 µM in assay [9] and over 100 µM in assay [10].
`COc1cc(-c2ccc(Nc3ccccc3C(=O)O)c(OC)c2)ccc1Nc1ccccc1C(=O)O`: the TGI in assay [1] is over 65.7 µM; in assay [2] it was over 100 µM; in assay [3] it was over 91.6 µM; in [4] it was 51.6 µM; in [5], 30.9 µM; in assay [6], over 100 µM. In addition, the TGI in [7] is 45 µM; in assay [8], over 100 µM; in assay [9], over 70.9 µM; in [10], over 87.5 µM.
